Test results: patent publication US9844563B2, “Compositions, kits, and methods to induce acquired cytoresistance using stress protein inducers” (FRED HUTCHINSON CANCER RESEARCH CENTER, priority 2014, dated 2017)
Where “and” joins values, the source holds several entries; their conditions need not be identical. Equal entries are not always repeated.

What was measured:
HO-1 mRNA = experiment: Renal cortical HO-1 mRNA (RT-PCR) after IV myoglobin, SnPP or both; format: in vivo, mice; conditions: 4 hrs post IV injection
Text: (§1) The Glycerol Model of AKI. This is a widely used model of rhabdomyolysis-induced AKI that has been employed worldwide for 50 years. The model was used to test whether prophylactic interventions confer protection against AKI. Basically, the protocol is as follows: Male CD-1 mice (35-45 grams), obtained from Charles River Laboratories, Wilmington, Mass. were studied. Mice were maintained under standard vivarium conditions and generally housed for 1-3 weeks prior to study. The mice were placed in a cylindrical restraining cage, and then were given a tail vein injection of the test substances (see below) or test substance vehicle. The mice were then returned to their cages. Eighteen hours (hrs) later, the mice were briefly anesthetized by isoflurane inhalation, and given an intramuscular injection of hypertonic (50%) glycerol in a dose of 9 ml/Kg body weight. The dose is divided in two, with half injected into the muscle of each of the hind limbs. The mice were then returned to their cages. Eighteen hrs later, the mice were deeply anesthetized with pentobarbital (50-100 mg/Kg), the abdominal cavity was opened through a midline abdominal incision, a blood sample was obtained from the abdominal vena cava and the kidneys were resected. A kidney cross section was obtained and fixed in formalin for subsequent histologic analysis. The terminal blood samples were analyzed for BUN and creatinine, using commercially available assay kits. The remaining kidney tissue was subjected to cortical dissection, and the cortical tissues were then extracted for protein and RNA. The protein samples were saved for analysis of HO-1 levels, and the RNA samples were subjected to RT-PCR to quantify HO-1 mRNA as well as levels of other stress gene mRNAs (e.g. NGAL, haptoglobin, hemopexin, hepicidin).
(§2) Myoglobin+SnPP: To 5 mg of dry myoglobin was added 0.9 ml of PBS+0.1 ml of a stock SnPP solution (50 umole/ml). The resulting final concentrations were 5 mg/ml myoglobin+5 umoles/ml of SnPP. The tail vein was injected with 200 ul of this solution, which equals 1 mg myoglobin+1 umole SnPP. […]
Four hr post myoglobin vs myoglobin+SnPP vs SnPP alone experiments. To confirm that the myoglobin+SnPP has a synergistic effect in inducing HO-1 mRNA and HO-1 protein levels, each of the above combinations have been administered alone via tail vein injection. Four hrs later, the mice were sacrificed as noted above and the kidneys were harvested for assessment of HO-1 mRNA and protein levels. For additional information regarding methods, see Zager et al., Am J Physiol Renal Physiol. 2014 Jul. 30. Pii.

HO-1 [1] = experiment: Renal cortical HO-1 protein (ELISA) after IV myoglobin, SnPP or both; format: in vivo, mice; conditions: Cortex, 4 hr IV, 1 mg Myoglobin, 1 μmole SnPP
Text: as §1, §2
Four hr post myoglobin vs myoglobin+SnPP vs SnPP alone experiments. To confirm that the myoglobin+SnPP has a synergistic effect in inducing HO-1 mRNA and HO-1 protein levels, each of the above combinations have been administered alone via tail vein injection. […] For additional information regarding methods, see Zager et al., Am J Physiol Renal Physiol. 2014 Jul. 30. Pii.

[2] = parameters: species or system mice; conditions: mouse, in vivo, iv
Haptoglobin = experiment: Renal cortical haptoglobin mRNA and protein after N-Mgb, SnPP or both; format: in vivo, mice; conditions: renal cortex, 4 h after Rx treatment
Method: (§3) Thirty-two mice were divided into 4 equal groups: (1) control mice; (2) mice treated with 1 mg of N-Mgb injection (as a bolus through the tail vein); (3) mice treated with […] of SnPP (via tail vein); and (4) mice treated with combined N-Mgb 1 SnPP. After either 4 hours (n=16) or 18 hours (n=16), the mice were deeply anesthetized with pentobarbital (50 mg/kg), the abdomen was opened through a midline abdominal incision, and the kidneys were removed. To determine potential effects on extrarenal organs, a liver lobe and the heart were also removed. The tissues were iced and then extracted for protein and RNA (RNeasy Plus Mini; Qiagen, Valencia, Calif.) and subjected to enzyme linked immunosorbent assay (ELISA) and reverse transcriptase polymerase chain reaction (RT-PCR) for HO-1, haptoglobin, and IL-10 protein and messenger RNAs (mRNAs). Zager et al. J Am Soc Nephrol 2014;25:998-1012; Zager et al. Am J Physiol 2012;303:F139-48. As an assessment of renal function, control mice and the 18 hour after N-Mgb+SnPP—treated mice had blood urea nitrogen (BUN) and plasma creatinine levels measured. Additionally, transverse 10% formalin fixed kidney sections ([…]) were cut and stained with hematoxylin and eosin (H&E) and periodic acid Schiff (PAS) to further assess potential injury.

IL-10 = experiment: Renal cortical IL-10 mRNA and protein after N-Mgb, SnPP or both; format: in vivo, mice
Method: as §3

HO-1 [3] = experiment: Cardiac HO-1 mRNA and protein after N-Mgb, SnPP or both; format: in vivo, mice; conditions: 18 h after Rx treatment
Method: as §3

[4] = Maleate model of AKI (FeS, SnPP, FeS+SnPP); format: in vivo, mice; conditions: IV 1 mg FeS and/or 1 μmole SnPP 18 hrs before IP Na maleate 800 mg/Kg; 18 hrs later
Text: Effects of Fe sucrose (FeS)/tin protoporphyrin (SnPP) on AKI severity. Maleate model of AKI. When injected into rodents, maleate undergoes relatively selective proximal tubule cell uptake via organic anion transporters. Once intracellular accumulation occurs, maleate is a preferred substrate for succinyl-CoA:3-oxoacid CoA transferase. […] Ample levels of CoA are essential for fatty acid “activation”, allowing for their subsequent metabolism through the Krebs cycle, yielding ATP. In the absence of this process, proximal tubule ATP depletion and cell injury result. Additionally, maleate conjugates the sulfhydryl group of glutathione (GSH), culminating in GSH depletion and potential oxidant tubular stress.
The following experiment tested whether FeS, SnPP or combined FeS+SnPP can mitigate this form of acute kidney injury (AKI). Twenty seven mice were subjected to 200 μL IV tail injections of one of the following: 1) vehicle (phosphate buffered saline, PBS; n, 10); 2) 1 mg FeS (American Regent (Shirley, N.Y.; n, 3); 3) 1 μmole SnPP (Frontier Scientific, Logan, Utah; n 7), or FeS+SnPP, n, 7). Eighteen hrs later, all mice received an IP injection of Na maleate (800 mg/Kg; in 500 ul of PBS). […] The severity of kidney injury was assessed by determining plasma blood urea nitrogen (BUN) and plasma creatinine (PCr) concentrations.

[5] = Berglund et al. Hepatology 1988; cited from earlier work
[6] = Nath et al., J. Clin. Invest. 1992; cited from earlier work
[7] = Berglund et al.; Kappas et al.; Reddy et al.; cited from earlier work

## C=Cc1c2[n-]c(c1C)/C=c1\[n-]/c(c(C)c1C=C)=C\c1[n-]c(c(CCC(=O)O)c1C)C=c1[n-]/c(c(C)c1CCC(=O)O)=C\2.[Sn+4] [SnPP, Sn-protoporphyrin, reference compound]
HO-1 mRNA; average
  HO-1 mRNA induction (HO-1/GAPDH mRNA), Average: 6.94 HO-1/GAPDH mRNA
HO-1 mRNA; single animals
  HO-1 mRNA induction (HO-1/GAPDH mRNA), individual mice: 9.72 HO-1/GAPDH mRNA and 8.25 HO-1/GAPDH mRNA and 6.95 HO-1/GAPDH mRNA and 2.85 HO-1/GAPDH mRNA
HO-1 [1]; average
  HO-1 Protein Expression (by ELISA), Average: 34.4 ng HO-1/mg protein
HO-1 [1]; single animals
  HO-1 Protein Expression (by ELISA), individual mice: 32.2 ng HO-1/mg protein and 31.5 ng HO-1/mg protein and 20.5 ng HO-1/mg protein and 53.6 ng HO-1/mg protein
[2]
  Plasma LDH, Average: 4.51 Absorbance U LDH/ml
Haptoglobin
  Kidney Haptoglobin (protein): 13.1 ± 1.3
IL-10; 4 hours after injection
  increase in renal IL-10 mRNA: either minimal or no impact
IL-10; 18 hours after injection
  increase in renal IL-10 protein: absence of IL-10 protein increases
IL-10; renal cortex, 4 h after Rx treatment
  Kidney IL-10 (protein): 550 ± 86
HO-1 [3]
  Cardiac mRNA HO-1: 0.09 ± 0.03
[4]
  reductions in BUN/PCr concentrations, maleate-induced AKI: Neither SnPP alone nor FeS alone significantly altered the severity of renal injury
[5]
  half-life: 2 to 4 h
[6]
  effect on kidney dysfunction: exacerbated kidney dysfunction
[7]
  tolerability in humans: well tolerated in humans
